Measured values reported in patent US12604893B2, “Compositions and methods for modulating microbiomes” (BOYCE THOMPSON INSTITUTE FOR PLANT RESEARCH, INC., priority 2019, dated 2026).

Assays:
[1] = tested on: Agrobacterium tumefaciens; experiment: Microbial metabolism of ascr #18; assay type: in vitro ADME
Description: (§1) To identify which specific microbes from the soil are responsible for ascr #18 metabolism, the effect of ascr #18 on individual microbes was tested. Bacteria and fungi in the soil interact with nematodes in diverse ways (Lakshmanan, et al. (2014) Plant Physiol., 166:689-700; Knox, et al. (2004) Appl. Environ. Microbiol., 70:4666-4671; Siddiqui, et al. (1999) Bioresour. Technol., 69:167-179). Microbial metabolism of ascr #18 was assessed in three bacteria, E. coli, Agrobacterium tumefaciens, and P. syringae and two fungi, Aspergillus fumigatus and A. flavus, all of which are commonly found in soil. […] Whereas, like fungi, all tested plants and animals are capable of metabolizing ascr #18, it appears that bacteria (and perhaps other prokaryotes) lack this ability.

A. flavus = experiment: Microbial metabolism of ascr #18; assay type: in vitro ADME
Description: as §1

P. syringae [2] = experiment: Microbial metabolism of ascr #18; assay type: in vitro ADME
Description: as §1

Aspergillus fumigatus = experiment: Microbial metabolism of ascr #18; assay type: in vitro ADME
Description: as §1

E. coli [3] = experiment: Microbial metabolism of ascr #18; assay type: in vitro ADME
Description: as §1

soil samples = experiment: Comparative metabolomics of soil samples treated with ascr #18; assay type: in vitro ADME
Description: (§2) To investigate whether ascarosides affect soil microbiomes, soil samples were collected from sites free from pesticide and fertilizer applications to ensure inclusion of a representative diversity of natural microbes (Panke-Buisse, et al. (2015) ISME J., 9:980-9; Lebeis, et al. (2015) Science 349:860-864). The soil samples were treated with low nanomolar concentrations of ascr #18 for 24 hours followed by microbial DNA and metabolome extraction. DNA sequencing was performed by targeting conserved 16s rRNA for bacteria and internal transcribed spacer (ITS) gene for fungi (Panke-Buisse, et al. (2015) ISME J., 9:980-9).
as §1

soil microbiome = experiment: Soil samples treated with ascr #18, microbial DNA sequencing (16s rRNA, ITS); conditions: low nanomolar concentrations, 24 hours; preliminary analyses
Description: as §2

P. syringae [4] = experiment: Bacterial growth assay, media supplemented with ascarosides; assay type: cell-based; conditions: growth media supplemented with 1 and 10 nM; FIG. 1A
Description: (§3) FIG. 1A provides a graph and images of P. syringae growth. Bacterial growth media were supplemented with different concentrations of ascarosides. Ten-fold serially diluted bacterial cells were plated and bacterial growth and quantification was performed 3 days post incubation. FIG. 1B provides images of B. subtilis growth. Bacterial growth media were supplemented with different concentrations of ascarosides. Ten-fold serially diluted bacterial cells were plated and bacterial growth and quantification was performed 18 hours post incubation. FIG. 1C provides a graph showing biofilm formation of S. marcescens in the presence of 1 nM of ascr #3, ascr #9, ascr #10, and ascr #18. *P<0.05, **P<0.001, two-tailed t-test. Bacterial growth and biofilm assays have been independently repeated at least three times.
(§4) To test whether bacteria respond to ascarosides, a simple growth assay was utilized. […] Enhanced growth and rhizosphere colonization of P. fluorescens has been observed in the presence of nematodes (Knox, et al. (2004) Appl. Environ. Microbiol., 70:4666-4671) and this may be due to ascr #18 excretion. Next, a wider selection of bacterial species from soil and human environments, including P. tabacum, P. fluorescens, S. marcescens, E. faecalis, and B. subtilis, was studied. […] In contrast to ascr #18, the effects of other ascarosides such as ascr #9, ascr #10, and ascr #3 were species-specific.

B. subtilis = experiment: as above; assay type: cell-based; conditions: FIG. 1B
Description: as §3, §4

P. fluorescens = experiment: as above; assay type: cell-based
Excerpt: as §4

A. tumefaciens = experiment: as above; assay type: cell-based; conditions: growth media supplemented with 1 and 10 nM
Excerpt: as §4

E. faecalis = experiment: as above; assay type: cell-based
Excerpt: as §4

S. marcescens = experiment: as above; assay type: cell-based
Excerpt: as §4

P. tabacum = experiment: as above; assay type: cell-based
Excerpt: as §4

E. coli [5] = experiment: as above; assay type: cell-based; conditions: growth media supplemented with 1 and 10 nM
Excerpt: as §4

SMILES | metabolism of ascr #18 by Agrobacterium tumefaciens [1] | metabolism of ascr #18 by A. flavus (A. flavus) | metabolism of ascr #18 by P. syringae (P. syringae [2]) | metabolism of ascr #18 by Aspergillus fumigatus (Aspergillus fumigatus) | metabolism of ascr #18 by E. coli (E. coli [3]) | metabolism of ascr #18 in soil samples (soil samples) | effect on microbial composition of the soil (soil microbiome) | bacterial growth of P. syringae (P. syringae [4]) | bacterial growth of B. subtilis (B. subtilis) | bacterial growth of P. fluorescens (P. fluorescens) | bacterial growth of A. tumefaciens (A. tumefaciens) | bacterial growth of E. faecalis (E. faecalis) | bacterial growth of S. marcescens (S. marcescens) | bacterial growth of P. tabacum (P. tabacum) | bacterial growth of E. coli (E. coli [5])
CC1O[C@@H](O[C@@H](C)CCCCCCCCC(=O)O)C(O)C[C@H]1O (stereo in doubt) [ascr #18, (10R)-(3′R,5′R-dihydroxy-6'S-methyl-(2H)-tetrahydropyran-2-yloxy)-undecanoic acid] | none of the bacteria were able to metabolize | metabolized into shorter-chained ascarosides | none of the bacteria were able to metabolize | metabolized into shorter-chained ascarosides | none of the bacteria were able to metabolize | extensively edited into shorter side-chained ascarosides | shifts microbial composition of the soil | significant growth increase | generally promoted growth | generally promoted growth | not affected | generally promoted growth | generally promoted growth | generally promoted growth | not affected
CC1O[C@@H](O[C@H](C)CCCC/C=C/C(=O)O)C(O)C[C@H]1O (stereo partly drawn) [ascr #3] | – | – | – | – | – | – | – | – | suppressed | suppressed | – | – | promoted growth | – | –
C[C@H](CCC(=O)O)O[C@@H]1O[C@@H](C)[C@H](O)C[C@H]1O [ascr #9] | – | – | – | – | – | – | – | – | suppressed | suppressed | – | – | promoted growth | – | –
CC1O[C@@H](O[C@H](C)CCCCCCC(=O)O)C(O)C[C@H]1O (stereo partly drawn) [ascr #10] | – | – | – | – | – | – | – | – | suppressed | suppressed | – | – | promoted growth | – | –
